# Measured values reported in paper PMC12455437, “Bispecific DNA‐Peptide Probes for Targeting Receptor Pairs on Live Cells” (Angewandte Chemie (International Ed. in English), 2025).
# Where a SMILES comes first, the peptide text is derived from it. [ ]: non-standard residue; d: D form. The star is where a group is joined. Dolaproine = CO[C@@H]([C@@H]1CCCN1)[C@@H](C)C(=O)O; Dil = CC[C@H](C)[C@H](NC)[C@@H](CC(=O)O)OC; X1 = C[C@@H](N*)[C@@H](O)c1ccccc1; NMeV = CN[C@H](C(=O)O)C(C)C
# System: HEK‐293 cells (VEGFR2−, αvβ3−)
# Assay: AlamarBlue cell viability, HEK-293
# Assay type: cell-based
# Conditions: 200 nM MMAE in free form, 10 min in PBS, 37 °C, 10% Alamar blue 6 h; HUVEC, HEK-293, HCT-116, A498 compared (Figure S44)
# Source text: Figure 6 Cytotoxicity of cathepsin B‐cleavable vcMMAE‐DNA‐peptide complexes LC40 and components. a) Viability of HUVECs after treatment with unlabeled DNA complex 2), vcMMAE‐template DNA 3), single‐stranded monovalent DNA‐peptide conjugates 4 and 5), heterobivalent LC40 lacking cytotoxic payload 6), both i) single‐stranded monovalent DNA‐peptide conjugates followed by ii) addition of vcMMAE‐template 7), with i) unlabeled DNA complex followed by addition of ii) both single‐stranded monovalent DNA‐peptide conjugates and subsequently iii) vcMMAE‐template 8 and 9), vcMMAE‐LC40 at varied concentrations 10–15) or with unlabeled DNA complex prior to addition of vcMMAE‐LC40 16 and 17). […] Flow cytometric analysis of HUVECs mixed with e) eGFP‐expressing HEK‐293 cells or f) anti‐EpCAM antibody‐stained HCT‐116 cells assessed by dead cell staining. […]
# The collected HUVEC cells were washed twice with OptiMEM and added to 2.4 mL OptiMEM in T25 flasks.The siRNA-lipofectamine complex (600 µL) was added to 2.4 mL HUVEC cells, and the mixture was incubated at 37°C, 5% CO 2 for 4 h. […] The transfection efficiency was calculated by flow cytometry and comparing the signal of anti-integrin antibody (A488) from HUVEC cells transfected with siRNA + lipofectamine with that from the cells with mock transfection (Fig. S39). […]
smiles,measurement,value
"CC[C@H](C)[C@@H]([C@@H](CC(=O)N1CCC[C@H]1[C@H](OC)[C@@H](C)C(=O)N[C@H](C)[C@@H](O)c1ccccc1)OC)N(C)C(=O)[C@@H](NC(=O)[C@@H](NC)C(C)C)C(C)C [MMAE, monomethyl auristatin E] (H-[NMeV]V[Dil][Dolaproine]-X1)","cytotoxic effect of MMAE in free form, comparison of cell lines",most vulnerable
